Reference: patent US20120142634A1, “Method of Treating Cancer with a Combination of a Proteasome Inhibitor and Salubrinal” (MOUNT SINAI SCHOOL OF MEDICINE OF NEW YORK UNIVERSITY, priority 2008, published 2012)
“Also recorded” adds a separate entry of the source. Where a SMILES comes first, the peptide text is derived from it. The star is where a group is joined. Cbz = O=C(OCc1ccccc1)*

How the values were obtained:
Assay type in all cases: cell-based
[1] = tested on: U266B1 cells; assay: Viability assay (trypan blue); settings: Salubrinal combined with MG-132 or Bortezomib, 24 hours
Protocol: Reagents, antibodies, RT-PCR, cell lines and tissue culture, plasmids. Proteasome inhibitor (MG-132, Velcade®; each commercially available) treatments were performed using 400 nM MG-132 or 4 nM Bortezomib (Velcade®) for 24 hours. The drug was then removed by serial washes with PBS and the remaining viable cells were replated. Salubrinal treatments were performed using the drug at 5 or 10 μg/ml, as indicated, for 24 hours. RPMI8226 cells contain a c-MYC insertion on t(16;22)(q32;q11):der16; U266B1 cells (t(11;14)) were from ATCC. Cells were cultured according to ATCC recommendations. Antibodies (identified by the antigen specifically recognized): p-Rb, Rb, p-eIF2α, eIF2α, GCN2, p-GCN2, p-PKR and PKR from Cell Signaling (Beverly, Mass.), p-PERK and PERK from Santa Cruz Biotechnology (Santa Cruz, Calif.), BiP from BD (San Jose, Calif.), GAPDH from Calbiochem (Beverly, Mass.), and β-tubulin from Abcam (Cambridge, Mass.). Total RNA was extracted using Trizol (Invitrogen, Carlsbad, Calif.). Primer sequences were published previously (Sequeira, et al., PLoS ONE 2(7):e615 2007, incorporated herein by reference in its entirety). The pCLBabe-eIF2αS51D plasmid was provided by Dr. David Schubert (Salk Institute, La Jolla, Calif.) and can be constructed using known techniques. […]
Viability assay, Immunoblotting. Cell viability was assessed using trypan blue. […]

[2] = tested on: HEp3 HNSCC cells; assay: Bortezomib-induced killing, with or without Salubrinal
[3] = tested on: Raji Burkitt's lymphoma cells; assay: as above
[4] = tested on: K-562 chronic myeloid leukemia cells; assay: as above
[5] = tested on: CHOP mRNA; assay: RT-PCR for CHOP mRNA in RPMI8226 cells; settings: acute combination of Salubrinal and Bortezomib (4 nM, 8 hours)
Protocol: Reagents, antibodies, RT-PCR, cell lines and tissue culture, plasmids. […] The drug was then removed by serial washes with PBS and the remaining viable cells were replated. […] RPMI8226 cells contain a c-MYC insertion on t(16;22)(q32;q11):der16; U266B1 cells (t(11;14)) were from ATCC. Cells were cultured according to ATCC recommendations. Antibodies (identified by the antigen specifically recognized): p-Rb, Rb, p-eIF2α, eIF2α, GCN2, p-GCN2, p-PKR and PKR from Cell Signaling (Beverly, Mass.), p-PERK and PERK from Santa Cruz Biotechnology (Santa Cruz, Calif.), BiP from BD (San Jose, Calif.), GAPDH from Calbiochem (Beverly, Mass.), and β-tubulin from Abcam (Cambridge, Mass.). Total RNA was extracted using Trizol (Invitrogen, Carlsbad, Calif.). Primer sequences were published previously (Sequeira, et al., PLoS ONE 2(7):e615 2007, incorporated herein by reference in its entirety). The pCLBabe-eIF2αS51D plasmid was provided by Dr. David Schubert (Salk Institute, La Jolla, Calif.) and can be constructed using known techniques. Transfection of RPMI8226 cells was performed using Amaxa technology according to the manufacturer's instructions (Gaithersburg, Md.).
(§1) Image quantification and statistical analysis. Image quantification was performed using ImageJ from NIH. Statistical analyses were performed using Prism 4.0 from GraphPad Software (La Jolla, Calif.) and the Student's t-test.

[6] = tested on: eIF2α; assay: Western blot for eIF2α phosphorylation in RPMI8226 cells; settings: for eIF2α phosphorylation: single agent, acute phase (Salubrinal 8 hours; MG-132 8-24 hours)
Protocol: (§2) Reagents, antibodies, RT-PCR, cell lines and tissue culture, plasmids. Proteasome inhibitor (MG-132, Velcade®; each commercially available) treatments were performed using 400 nM MG-132 or 4 nM Bortezomib (Velcade®) for 24 hours. The drug was then removed by serial washes with PBS and the remaining viable cells were replated. […] RPMI8226 cells contain a c-MYC insertion on t(16;22)(q32;q11):der16; U266B1 cells (t(11;14)) were from ATCC. Cells were cultured according to ATCC recommendations. Antibodies (identified by the antigen specifically recognized): p-Rb, Rb, p-eIF2α, eIF2α, GCN2, p-GCN2, p-PKR and PKR from Cell Signaling (Beverly, Mass.), p-PERK and PERK from Santa Cruz Biotechnology (Santa Cruz, Calif.), BiP from BD (San Jose, Calif.), GAPDH from Calbiochem (Beverly, Mass.), and β-tubulin from Abcam (Cambridge, Mass.). Total RNA was extracted using Trizol (Invitrogen, Carlsbad, Calif.). Primer sequences were published previously (Sequeira, et al., PLoS ONE 2(7):e615 2007, incorporated herein by reference in its entirety). The pCLBabe-eIF2αS51D plasmid was provided by Dr. David Schubert (Salk Institute, La Jolla, Calif.) and can be constructed using known techniques. Transfection of RPMI8226 cells was performed using Amaxa technology according to the manufacturer's instructions (Gaithersburg, Md.).
(§3) Viability assay, Immunoblotting. Cell viability was assessed using trypan blue. Immunoblotting was performed using convention techniques, as described previously Aguirre-Ghiso, et al., Cancer Res. 63(7):1684-1695 2003, incorporated herein by reference in its entirety.
as §1

[7] = tested on: RPMI8226 cells; assay: Viability assay (trypan blue)
Protocol: as §2, §3

[8] = tested on: U937 cells; assay: Bortezomib-induced killing, with or without Salubrinal
[9] = tested on: RPMI8226 cells; assay: Cell cycle analysis by propidium iodide staining and flow cytometry; settings: for cell death (sub-G0 population): MG-132 400 nM or Bortezomib 4 nM, 24-48 hours
Protocol: Reagents, antibodies, RT-PCR, cell lines and tissue culture, plasmids. Proteasome inhibitor (MG-132, Velcade®; each commercially available) treatments were performed using 400 nM MG-132 or 4 nM Bortezomib (Velcade®) for 24 hours. The drug was then removed by serial washes with PBS and the remaining viable cells were replated. Salubrinal treatments were performed using the drug at 5 or 10 μg/ml, as indicated, for 24 hours. RPMI8226 cells contain a c-MYC insertion on t(16;22)(q32;q11):der16; U266B1 cells (t(11;14)) were from ATCC. Cells were cultured according to ATCC recommendations. Antibodies (identified by the antigen specifically recognized): p-Rb, Rb, p-eIF2α, eIF2α, GCN2, p-GCN2, p-PKR and PKR from Cell Signaling (Beverly, Mass.), p-PERK and PERK from Santa Cruz Biotechnology (Santa Cruz, Calif.), BiP from BD (San Jose, Calif.), GAPDH from Calbiochem (Beverly, Mass.), and β-tubulin from Abcam (Cambridge, Mass.). Total RNA was extracted using Trizol (Invitrogen, Carlsbad, Calif.). Primer sequences were published previously (Sequeira, et al., PLoS ONE 2(7):e615 2007, incorporated herein by reference in its entirety). The pCLBabe-eIF2αS51D plasmid was provided by Dr. David Schubert (Salk Institute, La Jolla, Calif.) and can be constructed using known techniques. Transfection of RPMI8226 cells was performed using Amaxa technology according to the manufacturer's instructions (Gaithersburg, Md.).
Cell cycle analysis, label retention assay. Cell cycle analysis was performed using propidium iodide (PI)/RNAse staining buffer from BD according to the manufacturer's instruction. For label retention and viability quantification, cells were treated with proteasome inhibitors or DMSO for 24 hours, then stained with 50 nM CFDA/SE (Molecular Probes, Eugene, Oreg.) for 15 minutes and replated. Prior to analysis, cells were stained using Hoechst-33342 (10 μg/ml) for 15 minutes at 4° C. to determine cell viability. Cells were then fixed using 3% paraformaldehyde for 20 minutes and analyzed by flow cytometry (LSR-II from BD).

[10] = tested on: diffuse B-cell lymphoma U937 cells; assay: Bortezomib-induced killing, with or without Salubrinal; settings: 4 nM Bortezomib
[11] = Bortezomib combined with Salubrinal

| SMILES | cell death [1] | induction of killing [2, 11] | induction of killing [3, 11] | enhancement of Bortezomib-induced killing by Salubrinal [4] | CHOP mRNA [5] | p-eIF2α levels ([6]; Salubrinal combined with proteasome inhibitor, 8 hours) | eIF2α phosphorylation [6] | basal viability or growth ([7]; RPMI8226, 5 μM Salubrinal alone) | cell death ([7]; RPMI8226, Salubrinal combined with MG-132 or Bortezomib, 24 hours) | reduction in the number of viable cells ([7]; arrested cells surviving proteasome inhibition, 5 μM Salubrinal, 24 hours) | enhancement of Bortezomib-induced killing by Salubrinal [8] | induction of killing ([2]; Bortezomib alone) | induction of killing ([3]; Bortezomib alone) | sensitivity to Bortezomib ([4]; 4 nM Bortezomib) | cell death (sub-G0 population) [9] | sensitivity to Bortezomib [10] | number of cells in G0-G1 in cells surviving proteasome inhibition ([9]; MG-132 400 nM or Bortezomib 4 nM for 24 hours, then washout, control about 35%) | absolute number of viable cells after drug washout and replating ([7]; RPMI8226, 400 nM MG-132 for 24 hours, then washed) |
| --- | --- | --- | --- | --- | --- | --- | --- | --- | --- | --- | --- | --- | --- | --- | --- | --- | --- | --- |
| O=C(/C=C/c1ccccc1)NC(NC(=S)Nc1cccc2cccnc12)C(Cl)(Cl)Cl (centres unmarked) [Salubrinal] | 70-90% | neither Bortezomib alone nor its combination with Salubrinal was effective | neither Bortezomib alone nor its combination with Salubrinal was effective | neither of these cell lines was susceptible | strong induction | highest levels of p-eIF2α | increased phosphorylation of eIF2α | no significant induction of cell death; also recorded: no effect | 70-90% | approximately 10 fold | neither of these cell lines was susceptible |  |  |  |  |  |  |  |
| CC(C)C[C@H](NC(=O)[C@H](Cc1ccccc1)NC(=O)c1cnccn1)B(O)O [Bortezomib] |  |  |  |  |  |  |  |  |  |  |  | neither Bortezomib alone nor its combination with Salubrinal was effective | neither Bortezomib alone nor its combination with Salubrinal was effective | intermediately sensitive | strongly induced cell death | highly sensitive |  |  |
| CC(C)C[C@@H](C=O)NC(=O)[C@H](CC(C)C)NC(=O)[C@H](CC(C)C)NC(=O)OCc1ccccc1 [MG-132] (Cbz-Leu-Leu-Leu-aldehyde) |  |  |  |  |  |  | increased eIF2α-phosphorylation |  |  |  |  |  |  |  | strongly induced cell death |  | 55-65% | remained constant for 7 days |
